Assay results as given in patent publication US9884063B2, “Amido-substituted azole compounds” (Bayer Pharma Aktiengesellschaft, priority 2014, dated 2018).

Biological target: T1, TNKS1 (Homo sapiens, UniProt O95271)
T1 sequence (O95271 1-1327): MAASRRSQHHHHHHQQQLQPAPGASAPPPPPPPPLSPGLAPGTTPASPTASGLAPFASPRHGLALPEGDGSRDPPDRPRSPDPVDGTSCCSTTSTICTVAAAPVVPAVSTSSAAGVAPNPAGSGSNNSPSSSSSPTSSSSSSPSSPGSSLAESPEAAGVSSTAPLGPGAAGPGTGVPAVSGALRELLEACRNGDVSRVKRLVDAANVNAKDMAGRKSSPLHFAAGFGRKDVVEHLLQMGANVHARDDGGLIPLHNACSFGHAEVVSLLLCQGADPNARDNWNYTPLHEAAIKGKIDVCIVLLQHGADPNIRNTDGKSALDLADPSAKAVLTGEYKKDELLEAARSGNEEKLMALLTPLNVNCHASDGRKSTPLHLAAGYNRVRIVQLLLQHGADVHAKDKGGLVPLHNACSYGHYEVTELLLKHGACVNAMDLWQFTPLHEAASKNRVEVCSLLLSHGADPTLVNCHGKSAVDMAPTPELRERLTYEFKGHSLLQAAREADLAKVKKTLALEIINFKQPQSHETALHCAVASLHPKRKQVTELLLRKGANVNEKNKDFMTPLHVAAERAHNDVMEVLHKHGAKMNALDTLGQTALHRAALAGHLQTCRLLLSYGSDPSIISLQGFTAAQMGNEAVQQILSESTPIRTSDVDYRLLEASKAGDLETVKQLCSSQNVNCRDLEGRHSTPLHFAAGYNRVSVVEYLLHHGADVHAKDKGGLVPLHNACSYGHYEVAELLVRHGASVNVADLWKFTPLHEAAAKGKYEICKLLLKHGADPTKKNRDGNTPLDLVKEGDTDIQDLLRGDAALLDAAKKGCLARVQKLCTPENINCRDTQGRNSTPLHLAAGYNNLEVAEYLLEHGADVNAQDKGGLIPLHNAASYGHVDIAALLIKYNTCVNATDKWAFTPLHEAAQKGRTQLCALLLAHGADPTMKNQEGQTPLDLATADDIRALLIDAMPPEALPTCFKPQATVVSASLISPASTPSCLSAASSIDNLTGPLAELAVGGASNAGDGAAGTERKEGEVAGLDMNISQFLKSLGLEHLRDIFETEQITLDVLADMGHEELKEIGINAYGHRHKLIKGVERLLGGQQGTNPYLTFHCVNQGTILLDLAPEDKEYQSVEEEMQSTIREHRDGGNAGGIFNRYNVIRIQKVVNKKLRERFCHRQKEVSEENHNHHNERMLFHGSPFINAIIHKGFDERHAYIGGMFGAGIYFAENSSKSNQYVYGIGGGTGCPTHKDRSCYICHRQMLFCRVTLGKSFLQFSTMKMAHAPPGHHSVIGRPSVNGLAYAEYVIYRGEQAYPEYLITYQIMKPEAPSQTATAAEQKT
Assay: Modified TNKS1 Assay 2 (auto-parsylation, [3H]-NAD+ SPA)
Assay type: biochemical
Conditions: 6 nM TNKS1, 96 well

Row | IC50 [µM] | SMILES
1 | 1.6 | CNC(=O)c1nc[nH]c1C(=O)Nc1ccc(NC(=O)c2c(F)ccc(F)c2Cl)cc1 [Example 374, N^5-{4-[(2-chloro-3,6-difluorobenzoyl)amino]phenyl}-N^4-methyl-1H-imidazole-4,5-dicarboxamide]
2 | 0.009 | Cc1cc(NC(=O)c2[nH]cnc2C(=O)NCCN2CCCCC2)ccc1NC(=O)c1ccc(F)cc1Cl [Example 85, N^5-{4-[(2-chloro-4-fluorobenzoyl)amino]-3-methylphenyl}-N^4-[2-(piperidin-1-yl)ethyl]-1H-imidazole-4,5-dicarboxamide]
3 | 0.58 | CNC(=O)c1nc[nH]c1C(=O)Nc1ccc(NC(=O)c2cc(C(F)(F)F)ccc2Cl)cc1 [Example 352, N^5-(4-{[2-chloro-5-(trifluoromethyl)benzoyl]amino}phenyl)-N^4-methyl-1H-imidazole-4,5-dicarboxamide]
4 | 0.24 | O=C(Nc1ccc(NC(=O)c2nc[nH]c2C(=O)NCC2CCOCC2)cc1)c1ccc(F)cc1Cl [Example 397, N^5-{4-[(2-chloro-4-fluorobenzoyl)amino]phenyl}-N^4-(tetrahydro-2H-pyran-4-ylmethyl)-1H-imidazole-4,5-dicarboxamide]
5 | 0.21 | CC(CN1CCOCC1)NC(=O)c1[nH]cnc1C(=O)Nc1ccc(NC(=O)c2ccc(F)cc2)cc1 (stereo not shown) [Example 294, N^4-{4-[(4-fluorobenzoyl)amino]phenyl}-N^5-[1-(morpholin-4-yl)propan-2-yl]-1H-imidazole-4,5-dicarboxamide]
6 | 0.06 | CN(C)CCNC(=O)c1nc[nH]c1C(=O)Nc1ccc(NC(=O)c2ccccc2Cl)c(F)c1 [Example 81, N^5-{4-[(2-chlorobenzoyl)amino]-3-fluorophenyl}-N^4-[2-(dimethylamino)ethyl]-1H-imidazole-4,5-dicarboxamide]
7 | > 10 | CNC(=O)c1nc[nH]c1C(=O)Nc1ccc(NC(=O)c2ccon2)cc1 [Example 376, N^4-methyl-N^5-{4-[(1,2-oxazol-3-ylcarbonyl)amino]phenyl}-1H-imidazole-4,5-dicarboxamide]
8 | 0.02 | O=C(Nc1ccc(NC(=O)c2[nH]cnc2C(=O)NC2CC2)cc1)c1cc(F)c(F)cc1Cl [Example 51, N^5-{4-[(2-chloro-4,5-difluorobenzoyl)amino]phenyl}-N^4-cyclopropyl-1H-imidazole-4,5-dicarboxamide]
9 | 2.7 | CNC(=O)c1nc[nH]c1C(=O)Nc1ccc(NC(=O)c2cc(C#N)ccc2F)cc1 [Example 349, N^5-{4-[(5-cyano-2-fluorobenzoyl)amino]phenyl}-N^4-methyl-1H-imidazole-4,5-dicarboxamide]
10 | 0.04 | NCCNC(=O)c1[nH]cnc1C(=O)Nc1ccc(NC(=O)c2ccc(F)cc2Cl)cc1 [Example 290, N^5-(2-aminoethyl)-N^4-{4-[(2-chloro-4-fluorobenzoyl)amino]phenyl}-1H-imidazole-4,5-dicarboxamide]
11 | 0.1 | O=C(Nc1ccc(NC(=O)c2[nH]cnc2C(=O)NCCc2cccnc2)cc1)c1ccc(F)cc1Cl [Example 405, N^5-{4-[(2-chloro-4-fluorobenzoyl)amino]phenyl}-N^4-[2-(pyridin-3-yl)ethyl]-1H-imidazole-4,5-dicarboxamide]
12 | 0.004 | CC(CN1CCOCC1)NC(=O)c1[nH]cnc1C(=O)Nc1ccc(NC(=O)c2ccc(F)cc2Cl)cc1 (single isomer, unassigned; enantiomer 2) [Example 270, N^4-{4-[(2-chloro-4-fluorobenzoyl)amino]phenyl}-N^5-[1-(morpholin-4-yl)propan-2-yl]-1H-imidazole-4,5-dicarboxamide (enantiomer 2)]
13 | 3 | CCNC(=O)c1nc[nH]c1C(=O)Nc1ccc(NC(=O)c2cccc(OC)c2Cl)cc1 [Example 260, N^5-{4-[(2-chloro-3-methoxybenzoyl)amino]phenyl}-N^4-ethyl-1H-imidazole-4,5-dicarboxamide]
14 | 0.1 | COC(=O)c1nc[nH]c1C(=O)Nc1ccc(NC(=O)c2ccc(F)cc2Cl)c(F)c1 [Example 71, methyl 5-({4-[(2-chloro-4-fluorobenzoyl)amino]-3-fluorophenyl}carbamoyl)-1H-imidazole-4-carboxylate]
15 | > 10 | CNC(=O)c1nc[nH]c1C(=O)Nc1ccc(NC(=O)c2cccc(Cl)n2)cc1 [Example 353, N^5-(4-{[(6-chloropyridin-2-yl)carbonyl]amino}phenyl)-N^4-methyl-1H-imidazole-4,5-dicarboxamide]
16 | 0.06 | O=C(Nc1ccc(NC(=O)c2nc[nH]c2C(=O)N[C@H]2CCNC2)cc1)c1ccc(F)cc1Cl [Example 281, N^4-{4-[(2-chloro-4-fluorobenzoyl)amino]phenyl}-N^5-[(3S)-pyrrolidin-3-yl]-1H-imidazole-4,5-dicarboxamide]
17 | 0.06 | CNC(=O)c1nc[nH]c1C(=O)Nc1ccc(NC(=O)c2ccc(Br)cc2Cl)cc1 [Example 334, N^5-{4-[(4-bromo-2-chlorobenzoyl)amino]phenyl}-N^4-methyl-1H-imidazole-4,5-dicarboxamide]
18 | 0.05 | O=C(Nc1ccc(NC(=O)c2[nH]cnc2C(=O)NCCc2ccncc2)cc1)c1ccc(F)cc1Cl [Example 394, N^5-{4-[(2-chloro-4-fluorobenzoyl)amino]phenyl}-N^4-[2-(pyridin-4-yl)ethyl]-1H-imidazole-4,5-dicarboxamide]
19 | 0.08 | O=C(Nc1ccc(NC(=O)c2nc[nH]c2C(=O)NCCN2CCCCC2)cc1OC(F)(F)F)c1ccc(F)cc1Cl [Example 293, N^4-{4-[(2-chloro-4-fluorobenzoyl)amino]-3-(trifluoromethoxy)phenyl}-N^5-[2-(piperidin-1-yl)ethyl]-1H-imidazole-4,5-dicarboxamide]
20 | > 10 | CNC(=O)c1nc[nH]c1C(=O)Nc1ccc(NC(=O)c2ccc(F)c(Cl)c2)cc1 [Example 340, N^5-{4-[(3-chloro-4-fluorobenzoyl)amino]phenyl}-N^4-methyl-1H-imidazole-4,5-dicarboxamide]
21 | 0.14 | CNC(=O)c1nc[nH]c1C(=O)Nc1ccc(NC(=O)c2cc(F)ccc2Cl)cc1 [Example 361, N^5-{4-[(2-chloro-5-fluorobenzoyl)amino]phenyl}-N^4-methyl-1H-imidazole-4,5-dicarboxamide]
22 | 1.5 | O=C(Nc1ccc(NC(=O)c2[nH]cnc2C(=O)NCCc2ccccc2)cc1)c1ccc(F)cc1Cl [Example 384, N^5-{4-[(2-chloro-4-fluorobenzoyl)amino]phenyl}-N^4-(2-phenylethyl)-1H-imidazole-4,5-dicarboxamide]
23 | 5.7 | CNC(=O)c1nc[nH]c1C(=O)Nc1ccc(NC(=O)c2nccnc2Cl)cc1 [Example 372, N^5-(4-{[(3-chloropyrazin-2-yl)carbonyl]amino}phenyl)-N^4-methyl-1H-imidazole-4,5-dicarboxamide]
24 | > 10 | CCc1nc(C(=O)Nc2ccc(NC(=O)c3ccc(F)cc3Cl)cc2)c(C(=O)NC)[nH]1 [Example 68, N^4-{4-[(2-chloro-4-fluorobenzoyl)amino]phenyl}-2-ethyl-N^5-methyl-1H-imidazole-4,5-dicarboxamide]
25 | 0.17 | Cc1cc(NC(=O)c2[nH]cnc2C(=O)NCCN(C)C)ccc1NC(=O)c1ccc(F)cc1Cl [Example 84, N^5-{4-[(2-chloro-4-fluorobenzoyl)amino]-3-methylphenyl}-N^4-[2-(dimethylamino)ethyl]-1H-imidazole-4,5-dicarboxamide]
